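1) Cells in 96-well plates. 2) Compound, 48 h, 5 concentrations. 3) Linear interpolation between surrounding doses. 4) Unreached endpoint = highest concentration. Definition used: TGI = concentration required for complete inhibition of growth.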
How the values were obtained:
Assay in all cases: inhibition of tumour cell growth, NCI panel, 48 h
NCI-H460 lung = tested on: NCI-H460 lung
NCI-H226 lung = tested on: NCI-H226 lung
SK-MEL-28 melanoma = tested on: SK-MEL-28 melanoma
SF-268 CNS = tested on: SF-268 CNS
UO-31 renal = tested on: UO-31 renal
ACHN renal = tested on: ACHN renal
786-0 renal = tested on: 786-0 renal
SR leukemia = tested on: SR leukemia
SW-620 colon = tested on: SW-620 colon
A549 NSCLC = tested on: A549 NSCLC
SNB-19 CNS = tested on: SNB-19 CNS
NCI-H522 lung = tested on: NCI-H522 lung
SN12C renal = tested on: SN12C renal
SK-MEL-5 melanoma = tested on: SK-MEL-5 melanoma
DU-145 prostate = tested on: DU-145 prostate
SNB-75 CNS = tested on: SNB-75 CNS
MDA-MB-231 breast = tested on: MDA-MB-231 breast
HS 578T breast = tested on: HS 578T breast
MDA-MB-435 = tested on: MDA-MB-435
OVCAR-5 ovarian = tested on: OVCAR-5 ovarian
OVCAR-3 ovarian = tested on: OVCAR-3 ovarian
UACC-62 melanoma = tested on: UACC-62 melanoma
CAKI-1 renal = tested on: CAKI-1 renal
HOP-62 NSCLC = tested on: HOP-62 NSCLC
U251 CNS = tested on: U251 CNS
HOP-92 NSCLC = tested on: HOP-92 NSCLC
SF-295 CNS = tested on: SF-295 CNS
SK-OV-3 ovarian = tested on: SK-OV-3 ovarian
OVCAR-8 ovarian = tested on: OVCAR-8 ovarian
MDA-N = tested on: MDA-N
IGROV1 ovarian = tested on: IGROV1 ovarian
MALME-3M melanoma = tested on: MALME-3M melanoma
A498 renal = tested on: A498 renal
M14 melanoma = tested on: M14 melanoma
MOLT-4 leukemia = tested on: MOLT-4 leukemia
NCI-H23 lung = tested on: NCI-H23 lung
BT-549 breast = tested on: BT-549 breast
COLO 205 colon = tested on: COLO 205 colon
HT29 colon = tested on: HT29 colon
TK-10 renal = tested on: TK-10 renal
RXF 393 renal = tested on: RXF 393 renal
HL-60(TB) leukemia = tested on: HL-60(TB) leukemia
SF-539 CNS = tested on: SF-539 CNS
K-562 leukemia = tested on: K-562 leukemia
HCT-116 colon = tested on: HCT-116 colon
T-47D breast = tested on: T-47D breast
OVCAR-4 ovarian = tested on: OVCAR-4 ovarian
KM12 colon = tested on: KM12 colon
UACC-257 melanoma = tested on: UACC-257 melanoma
CCRF-CEM leukemia = tested on: CCRF-CEM leukemia
PC-3 prostate = tested on: PC-3 prostate

Measured: TGI

CC1C2CC(CC2O)C1(C)C (stereo unspecified)
> 100 µM: all assays above
